According to PMC10337138 (Acta Neuropathologica Communications, 2023):

What was measured:
Conditions in all cases: 1 mM ATP; inhibitor
TNK1 = TNK1 (Homo sapiens, UniProt Q13470)
Description: (§1) Kinase selectivity panel Kinome profiling was conducted by AssayQuant Technologies (Marlboro, MA) using Sox chromophore technology and Sox-based peptide substrates developed for human kinases in a 384-well format. Compounds were tested at 1 µM in the presence of 1 mM ATP.

PRKD3 = PRKD3 (Homo sapiens, UniProt O94806)
Description: as §1

DAPK1 = DAPK1 (Homo sapiens, UniProt P53355)
Description: as §1

JAK3(JH1) = JAK3(JH1) (Homo sapiens, UniProt P52333)
Description: as §1

MST1R/RON = MST1R/RON (Homo sapiens, UniProt Q04912)
Description: as §1

PRKAA2/AMPK221 = PRKAA2/AMPK221 (Homo sapiens, UniProt P54646)
Description: as §1

EPHA7 = EPHA7 (Homo sapiens, UniProt Q15375)
Description: as §1

EIF2AK2/PKR = EIF2AK2/PKR (Homo sapiens, UniProt P19525)
Description: as §1

MARK2 = MARK2 (Homo sapiens, UniProt Q7KZI7)
Description: as §1

PKN2 = PKN2 (Homo sapiens, UniProt Q16513)
Description: as §1

ZAP70 = ZAP70 (Homo sapiens, UniProt P43403)
Description: as §1

CDK6/D1 = CDK6/D1 (Homo sapiens, UniProt Q00534)
Description: as §1

AURKC/AURC = AURKC/AURC (Homo sapiens, UniProt Q9UQB9)
Description: as §1

HIPK4 = HIPK4 (Homo sapiens, UniProt Q8NE63)
Description: as §1

SRPK3/MSSK1 = SRPK3/MSSK1 (Homo sapiens, UniProt Q9UPE1)
Description: as §1

HIPK3 = HIPK3 (Homo sapiens, UniProt Q9H422)
Description: as §1

AXL = AXL (Homo sapiens, UniProt P30530)
Description: as §1

PRKAA1/AMPK121 = PRKAA1/AMPK121 (Homo sapiens, UniProt Q13131)
Description: as §1

PDHK2 = target: T1, PDHK2 (Homo sapiens, UniProt Q15119)
T1 construct: gene PDK2
Description: as §1

ITK = ITK (Homo sapiens, UniProt Q08881)
Description: as §1

FRK = FRK (Homo sapiens, UniProt P42685)
Description: as §1

DCLK1/DCAML1 = DCLK1/DCAML1 (Homo sapiens, UniProt O15075)
Description: as §1

CHEK2/CHK2 = CHEK2/CHK2 (Homo sapiens, UniProt O96017)
Description: as §1

RET = RET (Homo sapiens, UniProt P07949)
Description: as §1

PRKX = PRKX (Homo sapiens, UniProt P51817)
Description: as §1

EPHB1 = EPHB1 (Homo sapiens, UniProt P54762)
Description: as §1

PRKAA1/AMPK111 = PRKAA1/AMPK111 (Homo sapiens, UniProt Q13131)
Description: as §1

EEF2K = EEF2K (Homo sapiens, UniProt O00418)
Description: as §1

KSR1 = KSR1 (Homo sapiens, UniProt Q8IVT5)
Description: as §1

DDR1 = DDR1 (Homo sapiens, UniProt Q08345)
Description: as §1

PLK2 = PLK2 (Homo sapiens, UniProt Q9NYY3)
Description: as §1

AKT1 = AKT1 (Homo sapiens, UniProt P31749)
Description: as §1

BUB1 = BUB1 (Homo sapiens, UniProt O43683)
Description: as §1

LIMK2 = LIMK2 (Homo sapiens, UniProt P53671)
Description: as §1

SRPK2 = SRPK2 (Homo sapiens, UniProt P78362)
Description: as §1

ERBB2/HER2 = ERBB2/HER2 (Homo sapiens, UniProt P04626)
Description: as §1

DYRK3 = DYRK3 (Homo sapiens, UniProt O43781)
Description: as §1

CSNK1AL/CK1A2 = target: T2, CSNK1AL/CK1A2 (Homo sapiens, UniProt Q8N752)
T2 construct: gene CSNK1A1L
Description: as §1

FLT3 = FLT3 (Homo sapiens, UniProt P36888)
Description: as §1

Chain of TNK1 (Q13470 whole entry): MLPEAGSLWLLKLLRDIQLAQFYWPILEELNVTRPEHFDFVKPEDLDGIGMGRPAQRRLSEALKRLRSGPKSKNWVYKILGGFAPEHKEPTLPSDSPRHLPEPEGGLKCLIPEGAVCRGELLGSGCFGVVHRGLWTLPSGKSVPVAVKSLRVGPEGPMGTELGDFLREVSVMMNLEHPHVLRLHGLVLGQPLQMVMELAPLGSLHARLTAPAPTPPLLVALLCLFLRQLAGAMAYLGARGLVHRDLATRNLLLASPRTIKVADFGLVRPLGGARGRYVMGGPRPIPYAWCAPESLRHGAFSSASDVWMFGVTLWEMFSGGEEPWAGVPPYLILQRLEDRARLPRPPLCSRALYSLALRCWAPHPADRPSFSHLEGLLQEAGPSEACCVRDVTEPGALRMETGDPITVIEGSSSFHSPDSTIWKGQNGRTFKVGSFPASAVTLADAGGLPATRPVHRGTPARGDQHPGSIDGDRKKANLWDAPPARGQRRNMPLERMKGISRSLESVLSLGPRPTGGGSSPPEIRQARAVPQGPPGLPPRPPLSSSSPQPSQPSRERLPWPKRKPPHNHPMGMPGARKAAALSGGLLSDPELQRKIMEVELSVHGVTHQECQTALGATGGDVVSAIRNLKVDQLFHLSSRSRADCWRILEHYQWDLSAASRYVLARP
Chain of MARK2 (Q7KZI7 whole entry): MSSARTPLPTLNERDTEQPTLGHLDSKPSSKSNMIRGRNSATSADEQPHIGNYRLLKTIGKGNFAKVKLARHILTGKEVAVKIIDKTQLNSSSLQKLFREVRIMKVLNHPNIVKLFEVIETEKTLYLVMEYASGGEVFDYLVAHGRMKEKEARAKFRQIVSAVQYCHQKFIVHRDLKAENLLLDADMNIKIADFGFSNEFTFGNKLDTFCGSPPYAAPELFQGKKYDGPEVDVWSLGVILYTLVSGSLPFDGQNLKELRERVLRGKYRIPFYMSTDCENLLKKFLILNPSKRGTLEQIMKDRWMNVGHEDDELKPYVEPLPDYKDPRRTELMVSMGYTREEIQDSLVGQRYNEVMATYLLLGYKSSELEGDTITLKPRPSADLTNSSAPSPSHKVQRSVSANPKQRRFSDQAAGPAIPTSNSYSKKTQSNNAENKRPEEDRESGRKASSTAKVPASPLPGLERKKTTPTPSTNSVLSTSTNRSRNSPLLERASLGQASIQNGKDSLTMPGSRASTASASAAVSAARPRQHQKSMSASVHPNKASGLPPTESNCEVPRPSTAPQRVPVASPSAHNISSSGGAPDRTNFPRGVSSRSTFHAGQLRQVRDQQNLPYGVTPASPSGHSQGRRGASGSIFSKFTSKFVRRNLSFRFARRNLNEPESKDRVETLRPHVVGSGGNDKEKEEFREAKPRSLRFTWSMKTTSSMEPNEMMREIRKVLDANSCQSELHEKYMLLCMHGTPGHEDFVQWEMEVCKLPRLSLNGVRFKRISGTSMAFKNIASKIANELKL
Chain of AURKC/AURC (Q9UQB9 whole entry): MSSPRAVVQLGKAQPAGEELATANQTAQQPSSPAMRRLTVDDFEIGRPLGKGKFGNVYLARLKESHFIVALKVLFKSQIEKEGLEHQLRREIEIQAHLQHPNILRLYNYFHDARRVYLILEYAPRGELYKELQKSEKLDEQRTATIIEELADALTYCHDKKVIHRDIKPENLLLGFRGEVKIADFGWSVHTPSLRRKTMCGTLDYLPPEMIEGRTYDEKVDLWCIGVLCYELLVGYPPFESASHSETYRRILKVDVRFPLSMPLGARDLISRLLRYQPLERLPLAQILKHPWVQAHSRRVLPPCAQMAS
Chain of DAPK1 (P53355 whole entry): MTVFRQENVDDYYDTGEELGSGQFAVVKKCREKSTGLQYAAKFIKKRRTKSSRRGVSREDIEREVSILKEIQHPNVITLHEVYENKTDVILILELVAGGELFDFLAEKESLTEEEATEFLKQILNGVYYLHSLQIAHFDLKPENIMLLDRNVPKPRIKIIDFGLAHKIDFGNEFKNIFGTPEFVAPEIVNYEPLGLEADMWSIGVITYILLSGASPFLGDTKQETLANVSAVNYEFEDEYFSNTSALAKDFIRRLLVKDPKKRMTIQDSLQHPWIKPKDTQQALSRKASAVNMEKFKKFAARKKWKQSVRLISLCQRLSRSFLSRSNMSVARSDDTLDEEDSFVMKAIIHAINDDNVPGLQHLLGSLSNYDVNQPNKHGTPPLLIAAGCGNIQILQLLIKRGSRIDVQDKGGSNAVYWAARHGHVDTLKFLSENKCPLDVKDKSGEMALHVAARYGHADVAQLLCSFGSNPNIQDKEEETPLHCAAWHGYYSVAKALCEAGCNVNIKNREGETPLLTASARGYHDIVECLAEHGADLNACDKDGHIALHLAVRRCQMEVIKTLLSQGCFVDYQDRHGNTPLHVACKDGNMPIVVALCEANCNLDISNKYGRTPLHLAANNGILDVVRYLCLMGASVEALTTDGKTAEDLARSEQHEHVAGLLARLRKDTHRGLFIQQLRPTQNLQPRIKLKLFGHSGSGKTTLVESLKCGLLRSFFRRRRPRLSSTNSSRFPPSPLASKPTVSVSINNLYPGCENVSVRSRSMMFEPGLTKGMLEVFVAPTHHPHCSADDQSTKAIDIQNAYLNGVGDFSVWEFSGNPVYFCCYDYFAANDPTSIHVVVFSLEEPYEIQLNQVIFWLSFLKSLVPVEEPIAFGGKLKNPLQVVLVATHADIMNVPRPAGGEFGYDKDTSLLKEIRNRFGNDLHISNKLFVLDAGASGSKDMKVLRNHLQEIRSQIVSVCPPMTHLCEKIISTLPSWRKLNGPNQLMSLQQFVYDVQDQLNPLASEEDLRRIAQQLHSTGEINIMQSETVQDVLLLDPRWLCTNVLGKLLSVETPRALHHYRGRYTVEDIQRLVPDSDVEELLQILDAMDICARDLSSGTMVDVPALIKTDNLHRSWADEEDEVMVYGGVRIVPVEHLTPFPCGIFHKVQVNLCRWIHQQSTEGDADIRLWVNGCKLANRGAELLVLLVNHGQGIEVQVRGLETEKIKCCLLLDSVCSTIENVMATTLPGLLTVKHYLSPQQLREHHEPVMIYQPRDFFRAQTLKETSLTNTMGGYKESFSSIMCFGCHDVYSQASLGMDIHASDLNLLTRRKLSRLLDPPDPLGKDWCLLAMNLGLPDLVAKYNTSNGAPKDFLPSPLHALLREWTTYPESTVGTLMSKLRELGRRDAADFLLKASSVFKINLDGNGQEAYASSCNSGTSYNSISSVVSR
Chain of CHEK2/CHK2 (O96017 whole entry): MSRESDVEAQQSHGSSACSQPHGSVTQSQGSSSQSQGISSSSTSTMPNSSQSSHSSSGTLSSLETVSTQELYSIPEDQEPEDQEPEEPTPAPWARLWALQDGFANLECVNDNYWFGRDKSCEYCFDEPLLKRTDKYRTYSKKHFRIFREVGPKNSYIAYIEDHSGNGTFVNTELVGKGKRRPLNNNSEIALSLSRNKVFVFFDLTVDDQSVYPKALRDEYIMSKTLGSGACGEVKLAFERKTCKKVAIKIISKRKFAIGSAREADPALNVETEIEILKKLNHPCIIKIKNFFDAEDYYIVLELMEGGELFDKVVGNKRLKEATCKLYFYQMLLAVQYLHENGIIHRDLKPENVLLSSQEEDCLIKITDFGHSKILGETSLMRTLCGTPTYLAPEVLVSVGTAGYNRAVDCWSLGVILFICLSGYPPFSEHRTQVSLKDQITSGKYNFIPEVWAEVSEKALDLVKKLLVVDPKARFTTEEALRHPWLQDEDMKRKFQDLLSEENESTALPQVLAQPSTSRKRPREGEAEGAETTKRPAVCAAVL
Chain of EEF2K (O00418 whole entry): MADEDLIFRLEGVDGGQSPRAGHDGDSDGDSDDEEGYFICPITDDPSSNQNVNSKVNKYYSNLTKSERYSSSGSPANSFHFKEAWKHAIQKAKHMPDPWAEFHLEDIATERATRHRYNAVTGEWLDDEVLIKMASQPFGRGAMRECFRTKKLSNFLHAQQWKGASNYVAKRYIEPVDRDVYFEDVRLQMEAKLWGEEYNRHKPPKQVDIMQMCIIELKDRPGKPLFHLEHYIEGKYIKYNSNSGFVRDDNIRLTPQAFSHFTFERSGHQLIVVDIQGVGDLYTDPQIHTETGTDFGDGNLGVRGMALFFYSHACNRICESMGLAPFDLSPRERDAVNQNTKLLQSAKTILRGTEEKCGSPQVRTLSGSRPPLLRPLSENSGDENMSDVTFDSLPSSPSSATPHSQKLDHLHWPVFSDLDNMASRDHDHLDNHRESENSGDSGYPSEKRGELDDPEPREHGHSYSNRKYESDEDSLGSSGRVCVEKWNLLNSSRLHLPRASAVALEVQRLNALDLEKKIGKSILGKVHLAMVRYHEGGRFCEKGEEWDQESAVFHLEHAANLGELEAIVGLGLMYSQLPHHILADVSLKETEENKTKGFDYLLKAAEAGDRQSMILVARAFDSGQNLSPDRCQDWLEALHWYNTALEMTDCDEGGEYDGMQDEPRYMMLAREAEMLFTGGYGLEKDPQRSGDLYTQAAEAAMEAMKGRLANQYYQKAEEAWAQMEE
Chain of PRKX (P51817 whole entry): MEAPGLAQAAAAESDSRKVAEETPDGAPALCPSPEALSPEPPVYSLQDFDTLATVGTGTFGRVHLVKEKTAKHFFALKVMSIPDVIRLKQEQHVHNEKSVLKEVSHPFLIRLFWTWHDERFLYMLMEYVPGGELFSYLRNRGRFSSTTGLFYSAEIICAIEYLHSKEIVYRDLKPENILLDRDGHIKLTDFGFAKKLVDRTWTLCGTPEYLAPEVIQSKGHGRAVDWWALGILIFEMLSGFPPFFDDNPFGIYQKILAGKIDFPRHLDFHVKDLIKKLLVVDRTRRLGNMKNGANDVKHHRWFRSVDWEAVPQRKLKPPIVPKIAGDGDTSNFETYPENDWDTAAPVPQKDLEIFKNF

## C=CC(=O)N1CCC[C@@H](n2nc(-c3ccc(Oc4ccccc4)cc3)c3c(N)ncnc32)C1 [Ibrutinib]
TNK1
  1 µM GBD00276 (ibrutinib), % inhibition: -7.554%
PRKD3
  1 µM GBD00276 (ibrutinib), % inhibition: 1.376%
DAPK1
  1 µM GBD00276 (ibrutinib), % inhibition: 0.3006%
JAK3(JH1)
  1 µM GBD00276 (ibrutinib), % inhibition: 10.34%
MST1R/RON
  1 µM GBD00276 (ibrutinib), % inhibition: 1.112%
PRKAA2/AMPK221
  1 µM GBD00276 (ibrutinib), % inhibition: 4.802%
EPHA7
  1 µM GBD00276 (ibrutinib), % inhibition: -0.6285%
EIF2AK2/PKR
  1 µM GBD00276 (ibrutinib), % inhibition: 0.3752%
MARK2
  1 µM GBD00276 (ibrutinib), % inhibition: 4.287%
PKN2
  1 µM GBD00276 (ibrutinib), % inhibition: 2.374%
ZAP70
  1 µM GBD00276 (ibrutinib), % inhibition: -0.02061%
CDK6/D1
  1 µM GBD00276 (ibrutinib), % inhibition: 3.427%
AURKC/AURC
  1 µM GBD00276 (ibrutinib), % inhibition: 2.291%
HIPK4
  1 µM GBD00276 (ibrutinib), % inhibition: 3.287%
SRPK3/MSSK1
  1 µM GBD00276 (ibrutinib), % inhibition: 1.885%
HIPK3
  1 µM GBD00276 (ibrutinib), % inhibition: -0.6618%
AXL
  1 µM GBD00276 (ibrutinib), % inhibition: -6.462%
PRKAA1/AMPK121
  1 µM GBD00276 (ibrutinib), % inhibition: 2.34%
PDHK2
  1 µM GBD00276 (ibrutinib), % inhibition: 7.038%
ITK
  1 µM GBD00276 (ibrutinib), % inhibition: 38.79%
FRK
  1 µM GBD00276 (ibrutinib), % inhibition: 45.62%
DCLK1/DCAML1
  1 µM GBD00276 (ibrutinib), % inhibition: -29.46%
CHEK2/CHK2
  1 µM GBD00276 (ibrutinib), % inhibition: -10.68%
RET
  1 µM GBD00276 (ibrutinib), % inhibition: 15.14%
PRKX
  1 µM GBD00276 (ibrutinib), % inhibition: 11.47%
EPHB1
  1 µM GBD00276 (ibrutinib), % inhibition: -0.8801%
PRKAA1/AMPK111
  1 µM GBD00276 (ibrutinib), % inhibition: 6.623%
EEF2K
  1 µM GBD00276 (ibrutinib), % inhibition: 6.273%
KSR1
  1 µM GBD00276 (ibrutinib), % inhibition: 8.4%
DDR1
  1 µM GBD00276 (ibrutinib), % inhibition: 24.25%
PLK2
  1 µM GBD00276 (ibrutinib), % inhibition: -1.576%
AKT1
  1 µM GBD00276 (ibrutinib), % inhibition: 16.85%
BUB1
  1 µM GBD00276 (ibrutinib), % inhibition: 26.62%
LIMK2
  1 µM GBD00276 (ibrutinib), % inhibition: 11.59%
SRPK2
  1 µM GBD00276 (ibrutinib), % inhibition: 8.374%
ERBB2/HER2
  1 µM GBD00276 (ibrutinib), % inhibition: 98.1%
DYRK3
  1 µM GBD00276 (ibrutinib), % inhibition: 15.88%
CSNK1AL/CK1A2
  1 µM GBD00276 (ibrutinib), % inhibition: 14.53%
FLT3
  1 µM GBD00276 (ibrutinib), % inhibition: 20.23%
